Source: PMC10937556, “Phenolic phytochemistry, in vitro, in silico, in vivo, and mechanistic anti-inflammatory and antioxidant evaluations of Habenaria digitata” (Frontiers in Pharmacology, 2024)

How the values were obtained:
[1] = ABTS free radical scavenging assay
Method: The ABTS anti-radicals’ analysis was carried out according to [Shah et al. (2015)]. The ABTS solution was prepared by dissolving ABTS salt (192 mg) in distilled H2O, transferred to a flask (50 mL), and volume was adjusted. Thereafter, 1 mL of the preceding solution was added to 17 µL of K₂S₂O₈ (140 mM) and placed in the dark for 24 h s. The experiment’s ultimate ABTS dilution was achieved by mixing 1 mL of the reaction mixture with 50 mL of methanol. The ABTS solution (190 µL) was mixed with the sample solution (10 µL) and added to 96-well plates, which were then incubated at room temperature in dark for 2 h. Following incubation, the measurement of ABTS color intensity was conducted using a microplate reader at 734 nm. Positive control solutions were prepared at values of 1,000–62.5 µM. The percentage of ABTS scavenging was determined by using the following equation: % ABTS scavenging=Control−Sample/control×100.

[2] = DPPH free radical scavenging assay
Method: The DPPH (anti-radicals) investigation was carried out according to our earlier reported protocols. Initially, a methanolic DPPH solution was prepared with a concentration of 0.1%. Subsequently, 100 µL of this solution was mixed with an equal volume of the test samples (100 µL) in 96-well plates, following a 30-min incubation period at 25°C ± 3 °C in the dark. Solutions with concentrations ranging from […] were prepared. Five concentrations of 1,000, 500, 250, 125, and 62.5 µM of the Trolox methanolic solution ([…]) were formed. A color reduction in DPPH was observed after incubation; a microplate reader was used, and absorbance was measured at 540 nm ([Mahnashi et al., 2022a]; [Huneif et al., 2022]). The percentage of scavenging was determined by the formula: Scavenging effect %=control absorbance−sample absorbance/control absorbance×100.

COX-1 = COX-1 (Ovis aries, UniProt P05979); experiment: Cyclooxygenase COX-1 inhibition assay; type: biochemical; settings: for inhibition at 62.5 µg/mL: 62.50 μg/mL; for inhibition at 62.5 µg/mL / inhibition at 125 µg/mL / inhibition at 500 µg/mL: read-out: % COX-1 inhibition; for inhibition at 1000 µg/mL: 1,000 µg/mL
MDA = experiment: In vivo antioxidant: MDA level; design: species or system mice; settings: compound 1 (20 mg)
CAT = experiment: In vivo antioxidant: CAT activity; design: species or system mice; settings: high tested dose
Method: Twenty male albino mice were distributed into four groups, each with five mice. The control group (group 1) received 0.4 mL of distilled water. The compound was given in doses of 2.5, 5, and 10 mg/kg to groups 2, 3, and 4, respectively. Throughout the trial, the mice were given a daily dose for 3 weeks and were evaluated for alterations, other symptoms of toxicity, and death on a daily basis. […]
[…] […] The reaction was started by adding 0.1 mL of fresh 30 mM H2O2, and the decomposition rate of H2O2 was measured on a spectrophotometer at 240 nm for 5 min. Catalase activity was determined using a molar extinction coefficient of 0.041 mM^−1 cm^−1.

[3] = tested on: bradykinin-induced paw edema; experiment: Bradykinin-induced paw edema
Method: (§1) Employing prostaglandin E2, bradykinin, leukotriene, and histamine induced paw edema assays; the potential anti-inflammatory mechanism of the isolated compound was investigated. […] Sub-planter injections of prostaglandin E2 (0.01 mg/mL) or 10 mg/mL leukotriene or bradykinin (20 mg/mL) or 0.1 mL histamine (1 mg/mL) produced paw edema after 1 h. Each mouse’s paw volume was assessed immediately before and after sub-planter injection of various irritants (inflammatory agents) at 1–5 h.

GSH-Px = experiment: In vivo antioxidant: GSH-Px activity in brain, heart, liver; settings: D-galactose aging mice
Method: Twenty male albino mice were distributed into four groups, each with five mice. The control group (group 1) received 0.4 mL of distilled water. The compound was given in doses of 2.5, 5, and 10 mg/kg to groups 2, 3, and 4, respectively. Throughout the trial, the mice were given a daily dose for 3 weeks and were evaluated for alterations, other symptoms of toxicity, and death on a daily basis. Blood obtained by a direct heart puncture was utilized to assess the compound’s in vivo antioxidant activity 24 hours following the last dose ([Mota et al., 2023]).
The brain, liver, and heart homogenates were prepared in the cold saline via a homogenizer, and the unsolvable extract was discarded by centrifugation at 10,000 rpm for 15 min at temperature 4°C. After that, the supernatant was extracted immediately for GSH-Px assay ([Li et al., 2021]).

[4] = tested on: prostaglandin E2-induced paw edema; experiment: Prostaglandin E2-induced paw edema; settings: 20 mg/kg, 4th hour (maximal)
Method: as §1

SOD = experiment: In vivo antioxidant: SOD activity in brain, heart, liver; design: species or system mice; settings: for SOD activity: D-galactose aging mice
[5] = tested on: leukotriene-induced paw edema; experiment: Leukotriene-induced paw edema; settings: 20 mg/kg
Method: as §1

[6] = tested on: carrageenan-induced paw edema; experiment: Carrageenan-induced paw edema; type: in vivo, mice
Method: Mice of both sexes (25–30 g) were used for in vivo anti-inflammatory activity of test samples on the carrageenan-induced inflammation model ([Munir et al., 2020]). Mice were distributed into five groups, with eight animals in each group, divided at random. Group-I served as the negative control and received DMSO at a dose of 10 mL/kg body weight. Group-II served as a positive control, which received aspirin at a dose of 100 mg/kg body weight. […] Each mouse received 1 percent (w/v) saline solution (0.05 mL) of carrageenan in the sub-planter region after a 30-min interval. The paw edema volume was determined using a plethysmometer (LE 7500-plan lab S.L) at 1–5 h intervals after carrageenan was given. […] The percentages of inhibition of inflammation were calculated using the formula given below: % inhibition=EC−ET/EC×100, where “EC” is the average edema of control and “ET” is the edema of the tested group.

Sequence of COX-1 (P05979 25-600): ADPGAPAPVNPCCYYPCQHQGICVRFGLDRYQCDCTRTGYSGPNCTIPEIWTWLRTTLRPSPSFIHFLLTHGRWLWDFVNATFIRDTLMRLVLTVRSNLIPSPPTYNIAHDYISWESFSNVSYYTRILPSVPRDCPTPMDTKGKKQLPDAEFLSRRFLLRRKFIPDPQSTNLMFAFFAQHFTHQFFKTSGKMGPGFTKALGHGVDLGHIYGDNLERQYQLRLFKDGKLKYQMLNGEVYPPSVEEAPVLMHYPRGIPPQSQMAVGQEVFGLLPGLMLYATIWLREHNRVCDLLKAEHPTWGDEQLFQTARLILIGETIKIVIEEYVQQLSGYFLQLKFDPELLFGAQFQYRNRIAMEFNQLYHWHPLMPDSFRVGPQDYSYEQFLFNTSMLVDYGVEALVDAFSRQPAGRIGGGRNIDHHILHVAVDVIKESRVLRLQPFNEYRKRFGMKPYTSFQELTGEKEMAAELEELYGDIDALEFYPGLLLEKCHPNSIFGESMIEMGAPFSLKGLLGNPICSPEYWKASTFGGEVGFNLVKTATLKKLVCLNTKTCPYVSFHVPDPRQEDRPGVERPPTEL

Question: With `CC1=C(O)C(=O)C(O)CO1` (centres unmarked) [Compound 2, 3,5-dihydroxy-6-methyl-2,3-dihydro-4H-pyran-4-one] as the compound, how does the “ABTS IC50” value [1] read?
Answer: 03 µg/mL

Question: And the ABTS % inhibition ([1]; 62.5 µg/mL)?
Answer: 68.52 ± 0.38 %

Question: What about the ABTS % inhibition ([1]; 125 µg/mL) of the same compound?
Answer: 72.64 ± 0.16 %

Question: What about the ABTS % inhibition ([1]; 250 µg/mL) of the same compound?
Answer: 77.61 ± 1.70 %

Question: What about the ABTS % inhibition ([1]; 500 µg/mL) of the same compound?
Answer: 81.94 ± 0.45 %

Question: What about the ABTS % inhibition ([1]; 1,000 µg/mL) of the same compound?
Answer: 86.47 ± 0.22 %

Question: What about the “DPPH IC50” value [2] of the same compound?
Answer: 04 µg/mL

Question: What about the DPPH % inhibition ([2]; 62.5 µg/mL) of the same compound?
Answer: 72.74 ± 0.61 %

Question: What about the DPPH % inhibition ([2]; 125 µg/mL) of the same compound?
Answer: 76.54 ± 0.50 %

Question: What about the DPPH % inhibition ([2]; 250 µg/mL) of the same compound?
Answer: 81.48 ± 0.64 %

Question: What about the DPPH % inhibition ([2]; 500 µg/mL) of the same compound?
Answer: 86.86 ± 0.60 %

Question: And the DPPH % inhibition ([2]; 1,000 µg/mL)?
Answer: 91.62 ± 0.74 %

Question: And the inhibition at 62.5 µg/mL (COX-1)?
Answer: 40.8 ± 1.06%

Question: And the inhibition at 125 µg/mL (COX-1)?
Answer: 46.4 ± 0.62%

Question: What about the inhibition at 250 µg/mL (COX-1) of the same compound?
Answer: 54.6 ± 0.58%

Question: What about the inhibition at 500 µg/mL (COX-1) of the same compound?
Answer: 65.29 ± 0.41%

Question: What about the inhibition at 1000 µg/mL (COX-1) of the same compound?
Answer: 71.37 ± 0.56%

Question: What does the source list for `Cc1cnc(O)nc1O` [Compound 1, 5-methylpyrimidine-24,4-diol]?
Answer: ABTS IC50 [1]: 0.98 µg/mL; ABTS % inhibition ([1]; 62.5 µg/mL): 75.90 ± 0.48 %; ABTS % inhibition ([1]; 125 µg/mL): 79.03 ± 0.48 %; ABTS % inhibition ([1]; 250 µg/mL): 84.90 ± 0.96 %; ABTS % inhibition ([1]; 500 µg/mL): 87.65 ± 1.34 %; ABTS % inhibition ([1]; 1,000 µg/mL): 91.58 ± 1.12 %; MDA concentration (MDA; brain): 1.15 nmol/mL; MDA concentration (MDA; heart): 0.8 nmol/mg protein; MDA concentration (MDA; liver): 0.4 nmol/mg protein; DPPH IC50 [2]: 0.90 µg/mL; DPPH % inhibition ([2]; 62.5 µg/mL): 75.00 ± 1.15 %; DPPH % inhibition ([2]; 125 µg/mL): 78.67 ± 0.89 %; DPPH % inhibition ([2]; 250 µg/mL): 83.00 ± 0.58 %; DPPH % inhibition ([2]; 500 µg/mL): 87.03 ± 0.23 %; DPPH % inhibition ([2]; 1,000 µg/mL): 93.33 ± 0.49 %; CAT activity (CAT; brain): 97 U/mL; CAT activity (CAT; heart): 143.02 U/mg protein; CAT activity (CAT; liver): 139.0 U/mg protein; Percentage inhibition of bradykinin-induced paw edema ([3]; 20 mg/kg, initial hour): 9.20 ± 1.12%; Activity against bradykinin-induced paw edema ([3]; low doses): no activity; inhibition at 62.5 µg/mL (COX-1): 45.8 ± 0.9%; inhibition at 125 µg/mL (COX-1): 55.4 ± 0.2%; inhibition at 250 µg/mL (COX-1): 60.6 ± 0.63%; inhibition at 500 µg/mL (COX-1): 66.5 ± 0.9%; inhibition at 1000 µg/mL (COX-1): 73.1 ± 1.04%; GSH-Px activity in brain, heart and liver (GSH-Px): enhances the activity of GSH-Px; Percentage inhibition of prostaglandin E2-induced paw edema [4]: 82.0 ± 0.34%; SOD activity (SOD; brain, high-dosage group): 95 U/mL; SOD activity (SOD; heart, compound 1 (10 mg) group): 140.0 U/mg proteins; SOD activity (SOD; heart, high-dosage group): 180.0 U/mg proteins; SOD activity (SOD; liver, high-dosage group): 890.0 U/mg protein; SOD activity compared to the model group (SOD; p < 0.05, D-galactose aging mice): higher; Percentage inhibition of leukotriene-induced paw edema ([5]; 1 h): 53.00 ± 1.10%; Percentage inhibition of leukotriene-induced paw edema ([5]; 2 h): 59.50 ± 0.92%; Percentage inhibition of leukotriene-induced paw edema ([5]; 3 h): 62.0 ± 0.70%; Percentage inhibition of leukotriene-induced paw edema ([5]; 4 h): 54.84 ± 0.92%; Percentage inhibition of leukotriene-induced paw edema ([5]; 5 h): 41.43 ± 1.10%; Percentage inhibition of paw edema ([6]; dose 5 mg/kg, 1 h): 46.72 ± 2.63 ns %; Percentage inhibition of paw edema ([6]; dose 5 mg/kg, 2 h): 50.46 ± 2.52 %; Percentage inhibition of paw edema ([6]; dose 5 mg/kg, 3 h): 53.58 ± 1.33 %; Percentage inhibition of paw edema ([6]; dose 5 mg/kg, 4 h): 52.37 ± 1.46 %; Percentage inhibition of paw edema ([6]; dose 5 mg/kg, 5 h): 55.23 ± 1.61 %; Percentage inhibition of paw edema ([6]; dose 10 mg/kg, 1 h): 51.37 ± 2.23 %; Percentage inhibition of paw edema ([6]; dose 10 mg/kg, 2 h): 53.56 ± 3.57 %; Percentage inhibition of paw edema ([6]; dose 10 mg/kg, 3 h): 56.56 ± 1.57 %; Percentage inhibition of paw edema ([6]; dose 10 mg/kg, 4 h): 55.76 ± 2.62 %; Percentage inhibition of paw edema ([6]; dose 10 mg/kg, 5 h): 61.68 ± 2.77 %; Percentage inhibition of paw edema ([6]; dose 20 mg/kg, 1 h): 54.27 ± 3.06 %; Percentage inhibition of paw edema ([6]; dose 20 mg/kg, 2 h): 56.38 ± 1.67 %; Percentage inhibition of paw edema ([6]; dose 20 mg/kg, 3 h): 59.74 ± 2.67 %; Percentage inhibition of paw edema ([6]; dose 20 mg/kg, 4 h): 58.02 ± 1.95 %
